Results from patent US7538132B2, “Isoxazolo derivatives” (Hoffman-La Roche Inc., priority 2005, dated 2009).

biological target: T1, GABA A receptor α5β3γ2 (hα5) (Homo sapiens, UniProt P18507+P31644); test: [3H]flumazenil competition binding assay, human GABA A α5β3γ2 receptors; details: displacement of [3H]flumazenil (0.5 nM) from membranes of HEK293 cells expressing human α5β3γ2; 1 hour at 4° C.; means of two determinations
T1 construct: expressed in transfected cells; host or cells: HEK293 (transiently transfected; membranes prepared from cell pellets)
Experimental: The affinity of compounds at GABA A receptor subtypes was measured by competition for [3H]flumazenil (85 Ci/mmol; Roche) binding to HEK293 cells expressing rat (stably transfected) or human (transiently transfected) receptors of composition α1β3γ2, α2⊖3γ2, α3β3γ2 and α5β3γ2.
Cell pellets were suspended in Krebs-tris buffer (4.8 mM KCl, 1.2 mM CaCl2, 1.2 mM MgCl2, 120 mM NaCl, 15 mM Tris; pH 7.5; binding assay buffer), homogenized by polytron for ca. 20 sec on ice and centrifuged for 60 min at 4° C. (50000 g; Sorvall, rotor: SM24=20000 rpm). The cell pellets were resuspended in Krebs-tris buffer and homogenized by polytron for ca. 15 sec on ice. Protein was measured (Bradford method, Bio-Rad) and aliquots of 1 mL were prepared and stored at −80° C.
Assays were incubated to equilibrium for 1 hour at 4° C. and harvested onto GF/C uni-filters (Packard) by filtration using a Packard harvester and washing with ice-cold wash buffer (50 mM Tris; pH 7.5). After drying, filter-retained radioactivity was detected by liquid scintillation counting. Ki values were calculated using Excel-Fit (Microsoft) and are the means of two determinations.

| Ki [µM] | Structure (SMILES) |
| --- | --- |
| 0.0087 | Cc1onc(-c2ccc(Br)cc2)c1C(=O)c1cc(C(=O)NCCCN2CCOCC2)n(C)c1 [Example 232, 4-[3-(4-Bromo-phenyl)-5-methyl-isoxazole-4-carbonyl]-1-methyl-1H-pyrrole-2-carboxylic acid (3-morpholin-4-yl-propyl)-amide] |
| 0.00365 | Cc1onc(-c2ccc(Br)cc2)c1C(=O)c1c[nH]c(C(=O)NC2CCOCC2)c1 [Example 61, 4-[3-(4-Bromo-phenyl)-5-methyl-isoxazole-4-carbonyl]-1H-pyrrole-2-carboxylic acid (tetrahydro-pyran-4-yl)-amide] |
| 0.0061 | Cc1onc(-c2ccc(Cl)cc2)c1C(=O)c1c[nH]c(C(=O)NC2CC2)c1 [Example 154, 4-[3-(4-Chloro-phenyl)-5-methyl-isoxazole-4-carbonyl]-1H-pyrrole-2-carboxylic acid cyclopropylamide] |
| 0.0099 | Cc1onc(-c2ccc(F)cc2)c1C(=O)c1c[nH]c(C(=O)NCCO)c1 [Example 140, 4-[3-(4-Fluoro-phenyl)-5-methyl-isoxazole-4-carbonyl]-1H-pyrrole-2-carboxylic acid (2-hydroxy-ethyl)-amide] |
| 0.00155 | Cc1onc(-c2ccc(F)cc2)c1C(=O)c1c[nH]c(C(=O)NC2CCOCC2)c1 [Example 146, 4-[3-(4-Fluoro-phenyl)-5-methyl-isoxazole-4-carbonyl]-1H-pyrrole-2-carboxylic acid (tetrahydro-pyran-4-yl)-amide] |
| 0.0042 | Cc1onc(-c2ccc(F)c(F)c2)c1C(=O)c1c[nH]c(C(=O)NC2CCOCC2)c1 [Example 254, 4-[3-(3,4-Difluoro-phenyl)-5-methyl-isoxazole-4-carbonyl]-1H-pyrrole-2-carboxylic acid (tetrahydro-pyran-4-yl)-amide] |
| 0.0066 | Cc1onc(-c2ccccc2)c1C(=O)c1c[nH]c(C(=O)NCC2CC2)c1 [Example 12, 4-(5-Methyl-3-phenyl-isoxazole-4-carbonyl)-1H-pyrrole-2-carboxylic acid cyclopropylmethyl-amide] |
| 0.0021 | CCc1onc(-c2ccccc2)c1C(=O)c1c[nH]c(C(=O)NC2CCCC2)c1 [Example 215, 4-(5-Ethyl-3-phenyl-isoxazole-4-carbonyl)-1H-pyrrole-2-carboxylic acid cyclopentylamide] |
| 0.00685 | Cc1onc(-c2ccc(Br)cc2)c1C(=O)c1c[nH]c(C(=O)NC(C)C)c1 [Example 84, 4-[3-(4-Bromo-phenyl)-5-methyl-isoxazole-4-carbonyl]-1H-pyrrole-2-carboxylic acid isopropylamide] |
| 0.00775 | C#CCNC(=O)c1cc(C(=O)c2c(-c3ccc(F)cc3)noc2C)c[nH]1 [Example 145, 4-[3-(4-Fluoro-phenyl)-5-methyl-isoxazole-4-carbonyl]-1H-pyrrole-2-carboxylic acid prop-2-ynylamide] |
| 0.00245 | CCc1onc(-c2ccccc2)c1C(=O)c1c[nH]c(C(=O)NC2CCOCC2)c1 [Example 210, 4-(5-Ethyl-3-phenyl-isoxazole-4-carbonyl)-1H-pyrrole-2-carboxylic acid (tetrahydro-pyran-4-yl)-amide] |
| 0.00165 | Cc1onc(-c2ccc(F)cc2)c1C(=O)c1c[nH]c(C(=O)NC2CCCC2)c1 [Example 136, 4-[3-(4-Fluoro-phenyl)-5-methyl-isoxazole-4-carbonyl]-1H-pyrrole-2-carboxylic acid cyclopentylamide] |
| 0.0061 | Cc1onc(-c2cccc(F)c2)c1C(=O)c1c[nH]c(C(=O)NC2CCCC2)c1 [Example 178, 4-[3-(3-Fluoro-phenyl)-5-methyl-isoxazole-4-carbonyl]-1H-pyrrole-2-carboxylic acid cyclopentylamide] |
| 0.0023 | CCc1onc(-c2ccccc2)c1C(=O)c1c[nH]c(C(=O)NCC2CC2)c1 [Example 216, 4-(5-Ethyl-3-phenyl-isoxazole-4-carbonyl)-1H-pyrrole-2-carboxylic acid cyclopropylmethyl-amide] |
| 0.00755 | Cc1onc(-c2ccc(Cl)cc2)c1C(=O)c1c[nH]c(C(=O)NCCO)c1 [Example 153, 4-[3-(4-Chloro-phenyl)-5-methyl-isoxazole-4-carbonyl]-1H-pyrrole-2-carboxylic acid (2-hydroxy-ethyl)-amide] |
| 0.00605 | Cc1onc(-c2ccc(F)cc2)c1C(=O)c1c[nH]c(C(=O)NCCc2cnc[nH]2)c1 [Example 141, 4-[3-(4-Fluoro-phenyl)-5-methyl-isoxazole-4-carbonyl]-1H-pyrrole-2-carboxylic acid [2-(1H-imidazol-4-yl)-ethyl]-amide] |

| Ki [µM] | Structure (SMILES) |
| --- | --- |
| 0.00285 | Cc1onc(-c2ccccc2)c1C(=O)c1c[nH]c(C(=O)NC2CCOCC2)c1 [Example 26, 4-(5-Methyl-3-phenyl-isoxazole-4-carbonyl)-1H-pyrrole-2-carboxylic acid (tetrahydro-pyran-4-yl)-amide] |
| 0.00385 | Cc1onc(-c2ccc(Cl)cc2)c1C(=O)c1c[nH]c(C(=O)NCC2CC2)c1 [Example 156, 4-[3-(4-Chloro-phenyl)-5-methyl-isoxazole-4-carbonyl]-1H-pyrrole-2-carboxylic acid cyclopropylmethyl-amide] |
| 0.0045 | Cc1onc(-c2ccc(Br)cc2)c1C(=O)c1c[nH]c(C(=O)N[C@H]2CC[C@H](O)CC2)c1 [Example 123, 4-[3-(4-Bromo-phenyl)-5-methyl-isoxazole-4-carbonyl]-1H-pyrrole-2-carboxylic acid (4-hydroxy-cyclohexyl)-amide] |
| 0.0041 | Cc1onc(-c2ccc(F)cc2)c1C(=O)c1c[nH]c(C(=O)NC2CC2)c1 [Example 137, 4-[3-(4-Fluoro-phenyl)-5-methyl-isoxazole-4-carbonyl]-1H-pyrrole-2-carboxylic acid cyclopropylamide] |
| 0.00485 | CCc1onc(-c2ccccc2)c1C(=O)c1c[nH]c(C(=O)NC2CC2)c1 [Example 217, 4-(5-Ethyl-3-phenyl-isoxazole-4-carbonyl)-1H-pyrrole-2-carboxylic acid cyclopropylamide] |
| 0.0064 | Cc1onc(-c2ccc(F)c(F)c2)c1C(=O)c1c[nH]c(C(=O)NC2CCCC2)c1 [Example 255, 4-[3-(3,4-Difluoro-phenyl)-5-methyl-isoxazole-4-carbonyl]-1H-pyrrole-2-carboxylic acid cyclopentylamide] |
| 0.0036 | Cc1onc(-c2ccc(F)cc2)c1C(=O)c1c[nH]c(C(=O)NC2CCC2)c1 [Example 138, 4-[3-(4-Fluoro-phenyl)-5-methyl-isoxazole-4-carbonyl]-1H-pyrrole-2-carboxylic acid cyclobutylamide] |
| 0.0043 | COCc1onc(-c2ccc(F)cc2)c1C(=O)c1c[nH]c(C(=O)NC2CCOCC2)c1 [Example 221, 4-[3-(4-Fluoro-phenyl)-5-methoxymethyl-isoxazole-4-carbonyl]-1H-pyrrole-2-carboxylic acid (tetrahydro-pyran-4-yl)-amide] |
| 0.0045 | Cc1onc(-c2ccc(Br)cc2)c1C(=O)c1c[nH]c(C(=O)NC2CCOC(C)(C)C2)c1 (centres unmarked) [Example 135, 4-[3-(4-Bromo-phenyl)-5-methyl-isoxazole-4-carbonyl]-1H-pyrrole-2-carboxylic acid (2,2-dimethyl-tetrahydro-pyran-4-yl)-amide] |
| 0.00745 | C#CCNC(=O)c1cc(C(=O)c2c(-c3ccc(Cl)cc3)noc2C)c[nH]1 [Example 157, 4-[3-(4-Chloro-phenyl)-5-methyl-isoxazole-4-carbonyl]-1H-pyrrole-2-carboxylic acid prop-2-ynylamide] |
| 0.0052 | Cc1onc(-c2ccc(Cl)cc2)c1C(=O)c1c[nH]c(C(=O)NC2CCCC2)c1 [Example 152, 4-[3-(4-Chloro-phenyl)-5-methyl-isoxazole-4-carbonyl]-1H-pyrrole-2-carboxylic acid cyclopentylamide] |
| 0.008 | Cc1onc(-c2ccc(Br)cc2)c1C(=O)c1cc(C(=O)NC2CCOCC2)n(C)c1 [Example 231, 4-[3-(4-Bromo-phenyl)-5-methyl-isoxazole-4-carbonyl]-1-methyl-1H-pyrrole-2-carboxylic acid (tetrahydro-pyran-4-yl)-amide] |
| 0.0069 | Cc1onc(-c2ccc(Cl)cc2)c1C(=O)c1c[nH]c(C(=O)NCc2ccco2)c1 [Example 160, 4-[3-(4-Chloro-phenyl)-5-methyl-isoxazole-4-carbonyl]-1H-pyrrole-2-carboxylic acid (furan-2-ylmethyl)-amide] |
| 0.00795 | Cc1onc(-c2ccccc2)c1C(=O)c1c[nH]c(C(=O)NC2CCC2)c1 [Example 15, 4-(5-Methyl-3-phenyl-isoxazole-4-carbonyl)-1H-pyrrole-2-carboxylic acid cyclobutylamide] |
| 0.0063 | Cc1onc(-c2ccccc2F)c1C(=O)c1c[nH]c(C(=O)NC2CCCC2)c1 [Example 173, 4-[3-(2-Fluoro-phenyl)-5-methyl-isoxazole-4-carbonyl]-1H-pyrrole-2-carboxylic acid cyclopentylamide] |
| 0.0014 | Cc1onc(-c2ccc(Cl)cc2)c1C(=O)c1c[nH]c(C(=O)NC2CCOCC2)c1 [Example 162, 4-[3-(4-Chloro-phenyl)-5-methyl-isoxazole-4-carbonyl]-1H-pyrrole-2-carboxylic acid (tetrahydro-pyran-4-yl)-amide] |
